Reference: US9889111B2, “Pharmaceutical composition comprising omega-(arylsulfonyl)alkylnitrile” (OLATEC THERAPEUTICS LLC, priority 2012, dated 2018)

Key:
[1] = tested on: arachidonic acid-induced ear swelling; assay: Topical arachidonic acid-induced ear swelling model in mice (topical application); assay type: in vivo, mice (male ICR); conditions: 20 μL applied 30 min before and 15 min after arachidonic acid, measured at 90 minutes
Description: The test compounds, indomethacin (positive control), and vehicle were evaluated for anti-inflammatory activity in a topical arachidonic acid-induced ear swelling model in mice. Male ICR mice weighing 22±2 g were used and randomly divided. Arachidonic Acid (0.5 mg in 20 μl of acetone:ethanol/1:1) was applied topically to the anterior and posterior surfaces of the right ear of each mice. Test compounds and vehicle, as listed in Table 1 were similarly applied 30 minutes before and 15 minutes after arachidonic acid application. The thickness of the right ear and the left ear was measured and the difference calculated as an indication of the inflammation in the right ear. Ear swelling was measured by a Dyer model micrometer gauge at 60 and 90 minutes after arachidonic acid application as an index of inflammation. Percent inhibition was calculated according to the formula: Ic−It/Ic×100, where Ic and It refers to increase of ear thickness (mm) in control and treated mice, respectively. ANOVA and Dunnett's test were employed to ascertain significant difference between vehicle control and treated groups. Significance is set at P<0.05 level. The test compounds, indomethacin (positive control), and vehicle were evaluated for anti-inflammatory activity in a topical arachidonic acid-induced ear swelling model in mice. Male ICR mice weighing 22±2 g were used and randomly divided; the test compound and vehicle control had 10 mice, and indomethacin had 5 mice. Arachidonic Acid (0.5 mg in 20 μl of acetone:ethanol/1:1) was applied topically to the anterior and posterior surfaces of the right ear of each mouse. Test substances and vehicle, as listed in Table 4 were similarly applied 30 min before and 15 min after arachidonic acid application. The thickness of the right ear and the left ear was measured and the difference calculated as an indication of the inflammation in the right ear. Ear swelling was measured by a Dyer model micrometer gauge at 60 and 90 minutes after arachidonic acid application as an index of inflammation. Percent inhibition was calculated according to the formula: Ic−It/Ic×100, where Ic and It refers to increase of ear thickness (mm) in control and treated mice, respectively. ANOVA and Dunnett's test were employed to ascertain significant difference between vehicle control and treated groups. Significance is set at P<0.05 level.

[2] = tested on: arachidonic acid induced ear swelling; assay: Arachidonic acid induced ear swelling model in mice (oral administration); assay type: in vivo, mice (male ICR derived); conditions: for % Inhibition (ear swelling): Table 8, oral gavage, test compound 30 mg/kg 1 hour before, dexamethasone 0.3 mg/kg 3 hour before arachidonic acid, measured at 90 minutes
Description: 3-[(4-Methylphenyl)sulfonyl]propionitrile was suspended in vehicle (1% Tween 80 in water) to 3 mg/mL. The test compound, dexamethasone (positive control in vehicle), and vehicle were orally administered to mice and evaluated for anti-inflammatory activity in the topical arachidonic acid induced ear swelling model in mice.
Male ICR derived mice weighing 22±2 g were used in this experiment. 10 mice were used for each group (active compound, positive control, and vehicle). All animals were maintained in a controlled temperature (22-24° C.) and humidity (60%-70%) environment with 12-hour light/dark cycles for at least one week prior to use.
Arachidonic acid (0.5 mg in 20 μL acetone) was applied topically onto the anterior and posterior surfaces of the right ear of test animals to induce inflammation. Active compound in vehicle (10 mL/kg) and vehicle (10 mL/kg, […]) was orally administered by gavage 1 hour before arachidonic acid, whereas dexamethasone was orally administered by gavage 3 hour before arachidonic acid challenge. At 60 minutes and 90 minutes after arachidonic acid induction of ear edema, the thickness of the right ear and the left ear was measured and the difference calculated as an indication of the inflammation in the right ear.

[3] = Table 6, test compounds 375 mM, indomethacin 14 mM (0.5% w/v)
[4] = Table 7, test compounds 375 mM, indomethacin 14 mM

SMILES	% Inhibition (ear swelling) [1, 3] [%]	% Inhibition (ear swelling) [1, 4] [%]	other results
N#CCCS(=O)(=O)c1ccc2ccccc2c1 [3-(naphthalene-2-sulfonyl)propionitrile]	25	–	–
C[C@@H]1C[C@H]2[C@@H]3CCC4=CC(=O)C=C[C@]4(C)[C@@]3(F)[C@@H](O)C[C@]2(C)[C@@]1(O)C(=O)CO [Dexamethasone, reference compound]	–	–	% Inhibition (ear swelling) [2]: 36%
N#CCCS(=O)(=O)c1ccc(Cl)c(Cl)c1 [3-(3,4-dichlorophenyl)sulfonylpropionitrile]	–	28	melting point: 137.7 to 140.2 °C
Cc1ccc(S(=O)(=O)CCC#N)cc1 [3-[(4-methylphenyl)sulfonyl]propionitrile]	44	–	% Inhibition (ear swelling) [2]: 16%; Inhibition in arachidonic acid induced ear swelling (in words) ([2]; oral administration, at 90 minutes): significant inhibition
N#CCCS(=O)(=O)c1ccccc1 [3-(phenylsulfonyl)propionitrile]	36	–	–
COc1ccc(S(=O)(=O)CCC#N)cc1 [3-(4-methoxyphenyl)sulfonylpropionitrile]	–	23	–
N#CCCS(=O)(=O)c1ccc(Cl)cc1 [3-[(4-chlorophenyl)sulfonyl]propionitrile]	20	–	–
COc1ccc2c(c1)c(CC(=O)O)c(C)n2C(=O)c1ccc(Cl)cc1 [Indomethacin, reference compound]	57	58	–
